Values of other authors, collected in EP1556366B1, “PROCESS FOR THE E[…] OLEFINS” (Degussa AG, priority 2002, dated 2004).
Like-named read-outs stand apart in the source and are kept apart here.

Row | SMILES | pkB | pkB (Table 2, nitrogen bases)
1 | CN(C)C [Me3N, trimethyl amine] | 4.26 | 4.26
2 | CN [MeNH2, methyl amine] | 3.36 | 3.36
